Entries after “also recorded” stand apart in the source; their conditions may differ. Oligonucleotides are written 5' to 3', each unit as a sugar letter and its base; * is a phosphorothioate linkage, no mark a phosphodiester; rarer units and linkages stand in square brackets, end groups in braces. Plain capitals give the bases only. e = 2'-O-(2-methoxyethyl) (MOE); [5mC] = 5-methylcytosine; d = 2'-deoxy (DNA)
Tests used:
[1] = in vivo
breast cancer = assay type: in vivo, human; details: each group; loading doses then custirsen with a chemotherapeutic agent
Excerpt: At least 50 breast cancer patients are separated into two groups.

melanoma = assay type: in vivo, human; details: each group; loading doses then custirsen with a chemotherapeutic agent
Excerpt: At least 50 melanoma patients are separated into two groups.

myeloma = assay type: in vivo, human; details: each group; loading doses then custirsen with a chemotherapeutic agent
Excerpt: At least 50 myeloma patients are separated into two groups.

clusterin = details: cited from earlier work
bladder cancer = assay type: in vivo, human; details: each group; loading doses then custirsen with a chemotherapeutic agent
Excerpt: At least 50 bladder cancer patients are separated into two groups.

[2] = Phase I healthy volunteer study TV1011-DDI-102, 640 mg custirsen; assay type: in vivo
Excerpt: Three subjects withdrew from the study due to these constitutional symptoms.

## Custirsen: anti-clusterin antisense oligonucleotide CAGCAGCAGAGTCTTCATCAT, phosphorothioate backbone, 2′-O-methoxyethyl at nucleotides 1-4 and 18-21, 5-methylcytosines at 1, 4, 19 (antisense e[5mC]*eA*eG*e[5mC]*dA*dG*dC*dA*dG*dA*dG*dT*dC*dT*dT*dC*dA*eT*e[5mC]*eA*eT; listed as Homo sapiens)
[1]
  chills, patients: 35%
  fever, patients: 50%
  occurrence of grade 3/4 hepatic toxicity: rare
  severity of fever and chills/rigors: usually mild (grade 1-2)
  time of appearance of fever and chills/rigors after the infusion: 4 to 8 h
Breast cancer
  cancer condition of patients: improves
melanoma
  cancer condition of patients: improves
myeloma
  cancer condition of patients: improves
clusterin
  expression of clusterin: potently regulated the expression of clusterin; also recorded: potently reduces the expression of clusterin
clusterin; human prostate, breast, ovarian, lung, renal, bladder, and melanoma cells
  sensitization of cancer cells to chemotherapy: sensitizes
Bladder cancer
  cancer condition of patients: improves
[2]; human, in vivo
  time of peak of prolonged coagulation parameters after dose: around 48 hours
[2]; most subjects, starting a few hours after the first loading dose
  coagulation parameters (PTT and PT): Slightly prolonged
[2]; multiple 640 mg doses, after the first infusion
  AEs related to custirsen: 93 AEs
[2]; single and repeated doses of 640 mg custirsen, healthy volunteers
  deaths or other SAEs: No deaths or other SAEs were reported; also recorded: no SAEs
